Results from PubChem BioAssay AID1259407 (Chemical Carcinogenesis Research Information System (CCRIS), 2018).
The source made the active and inactive calls. No rule for the calls is given here.

Test system: CCRIS mutagenicity, Ames/micronucleus/aberration tests
Test: CCRIS mutagenicity studies

O=C(O)CC[N+](=O)[O-] was tested, and the mutagenic call (Test System: AMES SALMONELLA TYPHIMURIUM, Strain/Indicator: TA98, Metabolic Activation: HAMSTER, LIVER, S-9, AROCLOR 1254 (30%), Method: PREINCUBATION) was “inactive; negative”, the mutagenic call (Test System: AMES SALMONELLA TYPHIMURIUM, Strain/Indicator: TA98, Metabolic Activation: NONE, Method: PREINCUBATION) was “inactive; negative” and the mutagenic call (Test System: AMES SALMONELLA TYPHIMURIUM, Strain/Indicator: TA98, Metabolic Activation: RAT, LIVER, S-9, AROCLOR 1254 (30%), Method: PREINCUBATION) was “inactive; negative”. For the same compound, the mutagenic call (Test System: AMES SALMONELLA TYPHIMURIUM, Strain/Indicator: TA100, Metabolic Activation: HAMSTER, LIVER, S-9, AROCLOR 1254 (30%), Method: PREINCUBATION) was “active; positive”, the mutagenic call (Test System: AMES SALMONELLA TYPHIMURIUM, Strain/Indicator: TA100, Metabolic Activation: NONE, Method: PREINCUBATION) was “active; positive” and the mutagenic call (Test System: AMES SALMONELLA TYPHIMURIUM, Strain/Indicator: TA100, Metabolic Activation: RAT, LIVER, S-9, AROCLOR 1254 (30%), Method: PREINCUBATION) was “active; positive”. The mutagenic call (Test System: CHINESE HAMSTER OVARY, Strain/Indicator: CHO-K1-BH4 (HGPRT)/6-THIOGUANINE, Metabolic Activation: NONE) was “inactive; negative”, the mutagenic call (Test System: CHINESE HAMSTER OVARY, Strain/Indicator: CHO-K1-BH4 (HGPRT)/6-THIOGUANINE, Metabolic Activation: S-9) was “inactive; negative” and the mutagenic call (Test System: E. COLI, Strain/Indicator: WP2 UVRA, Metabolic Activation: HAMSTER, LIVER, S-9, AROCLOR 1254, Method: STANDARD PLATE) was “inactive; negative”. The mutagenic call (Test System: E. COLI, Strain/Indicator: WP2 UVRA, Metabolic Activation: HAMSTER, LIVER, S-9, Method: STANDARD PLATE) was “inactive; negative”, the mutagenic call (Test System: E. COLI, Strain/Indicator: WP2 UVRA, Metabolic Activation: MOUSE, LIVER, S-9, AROCLOR 1254, Method: STANDARD PLATE) was “inactive; negative” and the mutagenic call (Test System: E. COLI, Strain/Indicator: WP2 UVRA, Metabolic Activation: MOUSE, LIVER, S-9, Method: STANDARD PLATE) was “inactive; negative”. For the same compound, the mutagenic call (Test System: E. COLI, Strain/Indicator: WP2 UVRA, Metabolic Activation: NONE, Method: STANDARD PLATE) was “inactive; negative”, the mutagenic call (Test System: E. COLI, Strain/Indicator: WP2 UVRA, Metabolic Activation: RAT, LIVER, S-9, AROCLOR 1254, Method: STANDARD PLATE) was “inactive; negative” and the mutagenic call (Test System: E. COLI, Strain/Indicator: WP2 UVRA, Metabolic Activation: RAT, LIVER, S-9, Method: STANDARD PLATE) was “inactive; negative”. The mutagenic call (Test System: MOUSE LYMPHOMA, Strain/Indicator: L5178Y (TK+/TK-), Metabolic Activation: NONE, Method: SUSPENSION/PLATE) was “active; positive” and the mutagenic call (Test System: MOUSE LYMPHOMA, Strain/Indicator: L5178Y (TK+/TK-), Metabolic Activation: RAT, LIVER, S-9, AROCLOR 1254, Method: SUSPENSION/PLATE) was “active; positive”.
